Measurements published in patent publication US10682359B2, “Inhibitors of glucose kinases, along with methods of their formation and use” (University of South Carolina, priority 2017, dated 2020).
Read-outs that look alike come from different tables or passages of the source.

What was measured:
[1] = target: T1, Trypanosoma cruzi glucokinase (TcGlcK) (Trypanosoma cruzi, UniProt Q4E4E1); test: TcGlcK-HsΔG6PDH-diaphorase coupled assay, IC50 determination; format: biochemical
T1 construct: made in house
T1 sequence (Q4E4E1 1-376): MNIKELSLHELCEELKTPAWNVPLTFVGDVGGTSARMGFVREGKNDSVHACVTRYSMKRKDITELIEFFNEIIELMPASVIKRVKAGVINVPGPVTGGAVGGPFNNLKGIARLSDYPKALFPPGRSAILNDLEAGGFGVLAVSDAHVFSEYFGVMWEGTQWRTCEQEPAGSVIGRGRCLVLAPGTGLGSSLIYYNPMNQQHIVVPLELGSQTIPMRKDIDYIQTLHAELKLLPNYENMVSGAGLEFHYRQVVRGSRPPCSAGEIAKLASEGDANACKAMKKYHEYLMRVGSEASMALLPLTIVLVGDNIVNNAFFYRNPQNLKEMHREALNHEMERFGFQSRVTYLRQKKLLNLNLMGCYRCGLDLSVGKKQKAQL
Description: The TcGlcK assay was performed through its linking with the HsΔG6PDH-diaphorase enzyme-coupled assay system as schematically illustrated in FIG. 1. All of the compounds were tested in quadruplicate using the JANUS-MDT liquid handler equipped with a 384-tip head that was used to transfer 22 μL of a reagent mix [130 U/mL HsΔG6PDH, 100 mM NADP+, 1 kU/mL diaphorase, 10 mM resazurin, and 19 μM TcGlcK in a reaction buffer (see below)], 0.5 μL of 1 mM compounds in 100% DMSO (from the daughter plate, see above), and 2.5 μL of a substrate mix [4 mM D-glucose and 6 mM ATP in a reaction buffer] to a 384-well plate (total volume per well was 25 μL). The reaction buffer was 0.1 M triethanolamine (pH 8.5), 8.0 mM MgCl2, and 0.01% (v/v) Triton X-100. The final assay concentrations (FACs) were 0.5 U/mL HsΔG6PDH, 100 μM NADP+, 1 U/mL diaphorase, 20 μM resazurin, 2.5 nM TcGlcK, 20 μM compounds (from the daughter plate, see above), 0.4 mM D-glucose, 0.6 mM ATP, 0.1 M triethanolamine (pH 8.5), 8 mM MgCl2, and 0.01% (v/v) Triton X-100. […] The assay was carried out using 384-well, black, v-bottom microplates (Greiner Bio-One) with a final volume of 25 μL per well. Pipetting steps were performed with a liquid handler having a 384-tip head, JANUS-MDT from Perkin Elmer (Waltham, Mass.). Compounds that gave rise to TcGlcK enzyme activity in the presence of 20 μM compound (EA20) that results in less than 65%) were categorized as unconfirmed hits to proceed as candidates. The methodology is schematically illustrated in FIG. 2.
Determination of the IC50 values was performed by the TcGlcK—HsΔG6PDH—diaphorase coupled assay, in which reaction velocities were obtained at various concentrations of inhibitors. In 96-well plates, solutions of the inhibitors were prepared by serial dilution. Briefly, column 1 served as a control having an inhibitor concentration of zero; however, columns 2 through 12 on a given row had 11 different inhibitor concentrations from a serial dilution. Using the JANUS-MDT liquid handler with a 96-tip head, assay reactions were carried out in quadruplicate in a 384-well plate and the following components were transferred per well: 44 μL of a reagent mix [130 U/mL HsΔG6PDH, 100 mM NADP^+, 1 kU/mL diaphorase, 10 mM resazurin, and 19 μM TcGlcK in a reaction buffer (0.1 M triethanolamine (pH 8.5), 8.0 mM MgCl2, and 0.01% (v/v) Triton X-100)], 1 uL of 1 mM compound solutions in 100% DMSO, and 5 μL of a substrate mix [4 mM D-glucose and 6 mM ATP in the same reaction buffer]. The Envision microplate reader (PerkinElmer) was used to monitor the formation of resorufin in the fluorescence mode (λex=530 nm; λem=615 nm). Reaction velocities were measured and normalized by the controls. Values of IC50 were calculated using the GraphPad Prism 6.0 software from nonlinear regression of the data.

[2] = tested on: T. cruzi infective form (amastigotes and trypomastigotes) (Tulahuen strain) in NIH-3T3 fibroblasts; test: T. cruzi viability assay in NIH-3T3 fibroblasts; conditions: for EC50 / viability at 80 µM: Trypanosoma cruzi, TULAHUEN, NIH3T3; for Trypanocidal activity class: class by % viability at 80 μM; for in vitro T. cruzi EC50 compared with benznidazole: infective form co-cultured in NIH-3T3 fibroblasts
[3] = TcGlcK - inhibitor IC50, enzymatic coupled assay, read-out: IC50

Structure (SMILES)	viability at 80 µM [2] [%]	further results
COc1ccc(S(=O)(=O)Nc2cccc(Br)c2)c(Cl)c1Cl [Compound 1a]	0	IC50 [1, 3]: 7.2 µM; EC50 [2]: 13.3 ± 0.3 µM; Trypanocidal activity class [2]: active
COc1ccc(S(=O)(=O)Nc2cccc(SC)c2)cc1F [Compound 1b]	0	
COc1cc(S(=O)(=O)Nc2cccc(Cl)c2C)c(C)cc1C [Compound 1c]	0	
COc1ccc(NS(=O)(=O)c2ccc(Cl)c(C)c2Cl)cc1 [Compound 1d]	0	
COc1ccc(S(=O)(=O)Nc2ccc(F)c(F)c2)cc1I [Compound 1e]	0	
COc1ccc(S(=O)(=O)Nc2ccc3ccccc3c2)cc1Cl [Compound 1f]	0	
COc1ccc(S(=O)(=O)Nc2ccc(Br)cc2F)cc1Cl [Compound 1g]	0	
CCOc1cc(S(=O)(=O)Nc2ccc(Cl)cc2)ccc1F [Compound 1h]	0	
CCOc1ccc(S(=O)(=O)Nc2c(F)cccc2F)cc1Cl [Compound 1i]	4.9 ± 4.7	
CCOc1ccc(S(=O)(=O)Nc2cccc(Cl)c2C)cc1C [Compound 1j]	0	
COc1ccc(S(=O)(=O)Nc2cc(Cl)ccc2Cl)c(C)c1C [Compound 1k]	0	
COc1ccc(S(=O)(=O)Nc2ccccc2)cc1F [Compound 1l]	34.6 ± 4.3	
O=S(=O)(Nc1ccc(O)cc1)c1cc(Cl)ccc1Cl [Compound 1m]	0.6 ± 2.9	
COc1ccc(F)cc1S(=O)(=O)Nc1ccc(Cl)cc1 [Compound 1n]	2.4 ± 7.4	
O=C1C(=Cc2ccco2)C(=O)N(c2ccccc2)C(=O)N1c1ccccc1 [Compound 2a]	66.5 ± 22.3	IC50 [1]: 0.6 µM
Cc1cc(N2CCOCC2)ccc1/C=C1/C(=O)NC(=O)N(c2ccc3c(c2)OCO3)C1=O [Compound 2b]	57 ± 2.8	IC50 [1]: 1.1 µM
CN1C(=O)C(=Cc2ccc(N(C)C)cc2)C(=O)N(C)C1=O [Compound 2c]	79 ± 4	IC50 [1]: 5.5 µM
COc1ccc(Br)cc1/C=C1/C(=O)NC(=O)N(CCC2=CCCCC2)C1=O [Compound 2d]	88.7 ± 15.1	IC50 [1]: 13.7 µM
O=C1NC(=O)C(=Cc2ccc(N3CCOCC3)cc2)C(=O)N1 [Compound 2e]	88 ± 9.4	IC50 [1]: 1.7 µM
O=C1NC(=O)C(=Cc2ccc(Br)s2)C(=O)N1 [Compound 2f]	74.2 ± 5.3	IC50 [1]: 2.4 µM

Structure (SMILES)	viability at 80 µM [2] [%]	further results
O=C1NC(=O)C(=Cc2ccc(O)c(O)c2)C(=O)N1 [Compound 2g]	62.8 ± 11.6	IC50 [1]: 4.2 µM
O=C1NC(=O)C(=Cc2ccc3c(c2)OCO3)C(=O)N1 [Compound 2h]	81.2 ± 13.7	IC50 [1]: 8.7 µM
CCOc1ccc([C@@H]2Oc3c(Cl)cc(Cl)cc3C=C2[N+](=O)[O-])cc1OCC [Compound 4a]	0	IC50 [1, 3]: 4.8 µM; EC50 [2]: 2.98 ± 0.227 µM; Trypanocidal activity class [2]: active; in vitro T. cruzi EC50 compared with benznidazole [2]: very similar in vitro T. cruzi EC50 values to that of benznidazole
CCOc1ccc([C@@H]2Oc3ccc(Br)cc3C=C2[N+](=O)[O-])cc1OC [Compound 4b]	0	IC50 [1, 3]: 6.5 µM; EC50 [2]: 2.17 ± 0.045 µM; Trypanocidal activity class [2]: active; in vitro T. cruzi EC50 compared with benznidazole [2]: very similar in vitro T. cruzi EC50 values to that of benznidazole
COc1ccc([C@@H]2Oc3ccccc3C=C2[N+](=O)[O-])cc1OC [Compound 4c]	0	IC50 [1, 3]: 53.2 µM
CCOc1ccc([C@@H]2Oc3ccccc3C=C2[N+](=O)[O-])cc1OCC [Compound 4d]	0	IC50 [1, 3]: 69.1 µM
O=[N+]([O-])C1=Cc2c(ccc3ccccc23)O[C@H]1c1ccc2c(c1)OCO2 [Compound 4e]	0	
COc1ccc(Br)cc1[C@H]1C(C#N)=C(N)Oc2c1c(C)nn2-c1ccccc1 [Compound 5a]	0	IC50 [1, 3]: 18.8 µM
Cc1nn(-c2ccccc2)c2c1[C@@H](c1ccc(F)cc1)C(C#N)=C(N)O2 [Compound 5b]	87.1 ± 3.3	IC50 [1, 3]: 17.1 µM
Cc1ccc(-n2nc(C)c3c2OC(N)=C(C#N)[C@H]3c2ccoc2)cc1 [Compound 5c]	80.6 ± 3.9	
Cc1nn(-c2cccc(Cl)c2)c2c1[C@@H](c1cc([N+](=O)[O-])ccc1Cl)C(C#N)=C(N)O2 [Compound 5d]	0	
Cc1cc2c(c(O)c1-c1c(C)cc3c(c1O)C(=CNc1ccc(S(=O)(=O)NC(=N)N)cc1)C(=O)C(O)=C3C(C)C)C(=CNc1ccc(S(=O)(=O)NC(=N)N)cc1)C(=O)C(O)=C2C(C)C [Compound 6a]	0	IC50 [1, 3]: 13.2 µM; EC50 [2]: 8.62 ± 0.493 µM; Trypanocidal activity class [2]: active
Cc1cc2c(c(O)c1-c1c(C)cc3c(c1O)/C(=C/Nc1cccc4c(N)cccc14)C(=O)C(O)=C3C(C)C)/C(=C/Nc1cccc3c(N)cccc13)C(=O)C(O)=C2C(C)C [Compound 6b]	1.7 ± 2.7	IC50 [1, 3]: 16.5 µM
Cc1cc2c(c(O)c1-c1c(C)cc3c(c1O)/C(=C/Nc1c(O)cc(S(=O)(=O)O)c4ccccc14)C(=O)C(O)=C3C(C)C)/C(=C/Nc1c(O)ccc3c(S(=O)(=O)O)cccc13)C(=O)C(O)=C2C(C)C [Compound 6c]	20.4 ± 10.3	IC50 [1, 3]: 30.2 µM
Cc1cc2c(c(O)c1-c1c(C)cc3c(c1O)/C(=C/Nc1ccc(Cc4ccc(N)cc4)cc1)C(=O)C(O)=C3C(C)C)/C(=C/Nc1ccc(Cc3ccc(N)cc3)cc1)C(=O)C(O)=C2C(C)C [Compound 6d]	63.3 ± 0.4	IC50 [1, 3]: 61.6 µM
c1ccc([C@@H]2CCCN2)nc1 [Compound 7]	84.3 ± 0.5	
O=C(O)C1Nc2c(I)cccc2C2C=CCC12 (stereo not drawn) [Compound 8]	44.3 ± 5.1	
Nc1c(C(=O)c2cccc([N+](=O)O)c2)sc2nc(-c3cccnc3)ccc12 [Compound 9]	52.7 ± 7.9	
COc1ccc(C(=O)Nc2sc3c(c2C(N)=O)CCCCC3)cc1OC [Compound 10]	50.5 ± 3.4	
N#Cc1ccc(-c2cccnc2)nc1SCC(=O)O [Compound 11]	86.5 ± 0.9	
